Results on one molecule are retold here after article PMC7255801, “Disease-associated mutations in the human TRPM3 render the channel overactive via two distinct mechanisms” (eLife, 2020).

For assay [1], the target named is T1, wild-type hTRPM3α2 (Homo sapiens, UniProt Q9HCF6).
T1 construct: host or cells: HEK293
Put plainly: Intracellular Ca2+ assay (GCaMP6f) in 96-well plates, HEK293 cells, wild type channel. The class given is cell-based. As to the method: Intracellular Ca^2+ measurements were performed using a Flexstation-3 96‐well plate reader with rapid well injection (Molecular Devices) as described earlier ([Hughes et al., 2019]) with some modifications. Briefly Human Embryonic Kidney 293 (HEK293) cells were purchased from American Type Culture Collection (ATCC), Manassas, VA, (catalogue number CRL-1573), RRID:CVCL_0045; cell identity was verified by STR analysis by ATCC. HEK293 cells were cultured in MEM supplemented with 10% FBS and 100 IU/ml penicillin plus 100 µg/ml streptomycin in 5% CO2 at 37°C. Additional cell authentication was not performed, but passage number of the cells was monitored, and cells were used up to passage number 25–30 from purchase, when a new batch of cells was thawed with low passage number; cells were tested for the lack of mycoplasma infection. HEK293 cells were transfected with hTRPM3α2-GFP, or its mutants (200 ng) and GCaMP6 (1 μg) using the Effectene reagent (Qiagen). […] GCaMP6 signal was measured at excitation wavelengths 485 nm and fluorescence emission was detected at 525 nm. Sampling interval was 0.86 s and four parallel reads were performed for each condition. […] For measurements at 37°C the MEM medium used to culture the cells was replaced with the measurement solution preheated to 37°C, and the plate was placed in the plate reader warmed to 37°C using its built-in temperature controller.

Assay [2] deals with non-injected oocytes. Nature of the assay: Two electrode voltage clamp in non-injected oocytes. The conditions noted are these: 50 μM, n = 5. The class given is cell-based, Xenopus laevis. As to the method: Xenopus laevis oocytes were prepared as described earlier ([Badheka et al., 2015]). All animal procedures were approved by the Institutional Animal Care and Use Committee at Rutgers New Jersey Medical School. In brief, frogs were anesthetized in 0.25% ethyl 3-aminobenzoate methanesulfonate solution (MS222; Sigma-Aldrich); bags of ovaries were removed surgically from the anesthetized frogs. Individual oocytes were obtained by overnight digestion at 16°C in 0.2–0.3 mg/ml type 1A collagenase (Sigma-Aldrich), dissolved in a solution containing 82.5 mM NaCl, 2 mM KCl, 1 mM MgCl2, and […] HEPES, pH 7.4 (OR2 solution). The next day the collagenase containing solution was discarded and the oocytes were washed multiple times with OR2 solution. […]
Two electrode voltage clamp experiments were performed as described ([Badheka et al., 2015]). In brief, oocytes were placed in extracellular solution (97 mM NaCl, 2 mM KCl, 1 mM MgCl2, and […] HEPES, pH 7.4), and currents were recorded with thin-wall inner filament– containing glass pipettes (World Precision Instruments) filled with 3 M KCl in 1% agarose. Currents were measured with a ramp protocol from −100 to 100 mV once every 0.5 s with a GeneClamp 500B amplifier and analyzed with the pClamp 9.0 software (Molecular Devices). […]
(In general: Two-electrode voltage clamp holds a large cell at a set potential and records current.)

T1 sequence (Q9HCF6 1-1709 isoform Q9HCF6-5): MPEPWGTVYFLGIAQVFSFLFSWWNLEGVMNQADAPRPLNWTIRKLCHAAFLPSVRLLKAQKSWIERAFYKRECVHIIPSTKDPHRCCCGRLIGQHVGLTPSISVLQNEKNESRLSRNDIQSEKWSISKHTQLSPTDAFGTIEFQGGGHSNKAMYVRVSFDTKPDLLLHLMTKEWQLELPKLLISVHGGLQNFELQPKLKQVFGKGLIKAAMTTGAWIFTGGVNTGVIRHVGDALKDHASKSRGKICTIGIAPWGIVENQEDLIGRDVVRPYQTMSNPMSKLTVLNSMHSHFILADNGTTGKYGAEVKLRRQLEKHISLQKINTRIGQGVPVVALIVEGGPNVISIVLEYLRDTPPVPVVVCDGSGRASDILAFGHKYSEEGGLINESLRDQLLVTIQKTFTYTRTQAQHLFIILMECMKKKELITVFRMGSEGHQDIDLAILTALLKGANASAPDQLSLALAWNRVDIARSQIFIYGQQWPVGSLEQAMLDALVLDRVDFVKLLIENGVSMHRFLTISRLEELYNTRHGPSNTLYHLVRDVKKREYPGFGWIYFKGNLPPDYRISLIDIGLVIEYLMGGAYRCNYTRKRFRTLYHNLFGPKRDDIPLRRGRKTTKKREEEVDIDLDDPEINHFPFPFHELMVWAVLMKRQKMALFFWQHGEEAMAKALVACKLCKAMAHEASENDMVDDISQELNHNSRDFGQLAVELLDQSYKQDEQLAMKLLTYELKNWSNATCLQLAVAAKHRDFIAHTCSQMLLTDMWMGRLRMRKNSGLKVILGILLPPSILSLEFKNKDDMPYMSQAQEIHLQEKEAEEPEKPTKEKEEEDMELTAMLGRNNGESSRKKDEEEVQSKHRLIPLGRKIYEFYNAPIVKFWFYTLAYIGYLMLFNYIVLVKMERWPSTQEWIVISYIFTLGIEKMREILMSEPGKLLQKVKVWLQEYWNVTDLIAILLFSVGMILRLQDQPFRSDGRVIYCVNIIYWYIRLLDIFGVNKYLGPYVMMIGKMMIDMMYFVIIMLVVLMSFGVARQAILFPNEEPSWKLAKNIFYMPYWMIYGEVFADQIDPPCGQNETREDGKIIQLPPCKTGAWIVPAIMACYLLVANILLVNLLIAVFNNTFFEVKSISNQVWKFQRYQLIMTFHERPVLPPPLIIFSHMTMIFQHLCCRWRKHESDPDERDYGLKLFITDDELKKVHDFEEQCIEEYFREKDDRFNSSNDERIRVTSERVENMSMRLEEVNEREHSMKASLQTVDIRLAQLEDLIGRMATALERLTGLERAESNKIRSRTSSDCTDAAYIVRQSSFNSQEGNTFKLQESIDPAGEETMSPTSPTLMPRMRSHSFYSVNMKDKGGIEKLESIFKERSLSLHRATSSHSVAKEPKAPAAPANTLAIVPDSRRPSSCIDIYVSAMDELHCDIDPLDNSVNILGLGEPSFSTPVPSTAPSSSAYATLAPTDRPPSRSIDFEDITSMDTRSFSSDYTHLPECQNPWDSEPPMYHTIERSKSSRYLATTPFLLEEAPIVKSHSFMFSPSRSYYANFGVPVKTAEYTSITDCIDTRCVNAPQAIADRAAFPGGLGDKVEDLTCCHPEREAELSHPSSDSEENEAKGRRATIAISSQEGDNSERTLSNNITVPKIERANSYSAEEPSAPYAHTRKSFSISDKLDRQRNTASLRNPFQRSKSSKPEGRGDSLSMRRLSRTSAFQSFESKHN

For `CCC1(c2ccccc2)C(=O)NCNC1=O` [primidone], the “Effect on basal cytoplasmic Ca2+ levels” value in assay [1] (wild type TRPM3, room temperature (21°C)) was “no effect”. The “Effect on basal Ca2+ levels at 37°C” value in assay [1] (wild type channels, 50 μM, 37°C) is recorded as “reduced basal Ca^2+ levels”. Moreover, in assay [2], the “Inhibition of basal current” value is “did not induce any inhibition”.
